Assay results as given in PMC3731359 (PLoS ONE, 2013).
Ends that are not written are not given here. * marks the point of attachment. Biotin = O=C1N[C@H]2[C@H](CS[C@H]2CCCCC(=O)*)N1

Experiments:
NAE [1] = target: T1, NAE (Homo sapiens, UniProt Q13564+Q8TBC4); conditions: cited from earlier work
T1 construct: made in house; host or cells: E. coli BL21(DE3)pLysS
T1 sequence (Q8TBC4 22-463 limits assumed): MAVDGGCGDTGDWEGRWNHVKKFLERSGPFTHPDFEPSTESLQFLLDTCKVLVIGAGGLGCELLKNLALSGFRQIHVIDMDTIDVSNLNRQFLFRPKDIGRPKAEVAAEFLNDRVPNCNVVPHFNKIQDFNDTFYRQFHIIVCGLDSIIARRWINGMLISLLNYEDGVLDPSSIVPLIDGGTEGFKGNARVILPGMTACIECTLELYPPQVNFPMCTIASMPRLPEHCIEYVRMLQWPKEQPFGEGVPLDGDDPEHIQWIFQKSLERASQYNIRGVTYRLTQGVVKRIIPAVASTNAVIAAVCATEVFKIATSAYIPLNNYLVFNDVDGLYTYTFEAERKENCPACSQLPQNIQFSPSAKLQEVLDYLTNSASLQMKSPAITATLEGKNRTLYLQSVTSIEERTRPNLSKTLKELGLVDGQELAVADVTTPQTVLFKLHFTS
T1 sequence (Q13564 1-534 partner): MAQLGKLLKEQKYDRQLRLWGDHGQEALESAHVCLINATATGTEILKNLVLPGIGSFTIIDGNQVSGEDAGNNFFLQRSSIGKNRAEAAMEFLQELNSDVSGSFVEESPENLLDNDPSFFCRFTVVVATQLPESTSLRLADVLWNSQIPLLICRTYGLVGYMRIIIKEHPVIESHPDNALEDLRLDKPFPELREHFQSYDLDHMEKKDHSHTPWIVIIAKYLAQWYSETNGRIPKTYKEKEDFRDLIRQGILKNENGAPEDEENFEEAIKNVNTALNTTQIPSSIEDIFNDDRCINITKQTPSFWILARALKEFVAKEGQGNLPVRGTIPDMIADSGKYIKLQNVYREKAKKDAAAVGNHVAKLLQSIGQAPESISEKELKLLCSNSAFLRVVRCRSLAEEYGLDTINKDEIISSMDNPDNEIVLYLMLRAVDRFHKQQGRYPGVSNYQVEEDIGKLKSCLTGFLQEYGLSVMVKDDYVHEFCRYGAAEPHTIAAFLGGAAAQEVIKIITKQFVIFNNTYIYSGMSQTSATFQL
Source text: […] binds to the nucleotide binding pocket of NAE as an AMP analog with a sulfamate ...

NAE (E1) = test: Western blot: formation of UB∼NAE thioester conjugates; assay type: biochemical; conditions: 5 µM HA-tagged protein, 1 µM NAE, 1 mM ATP, 1 h, room temperature, anti-HA Western blot
Description: (§1) Figure 6 Transfer of phage selected UB variants to NAE (E1), Ubc12 (E2), and cullin-3. HA-tagged wt UB, wt Nedd8 and UB variants were used in the assay. In the control reaction, either Ubc12 or cullin-3 in complex with Rbx1 was missing. The blots were probed with a mouse anti-HA antibody and a goat anti-mouse IgG antibody linked to HRP.
(§2) 20 µL of the reaction mixture were loaded on a 4–15% SDS-PAGE gel (Bio-Rad). After electrophoresis, the protein bands were electroblotted onto a piece of polyvinylidene fluoride membrane (Bio-Rad). The membrane was blocked with 3% BSA in TBS buffer for 1 hour followed by incubation with 3% BSA in TBS buffer containing 1∶500 diluted 200 µg/mL anti-HA antibody (Santa Cruz Biotechnology) and 1∶10,000 diluted anti-mouse horseradish peroxidase conjugate (Pierce) for 1 hour, respectively. The membrane was then washed 5 times with TBS-T buffer and 5 times with TBS buffer followed by detection with the ECL luminescent detection kit (GE Healthcare).

NAE [2] = target: T1, NAE; conditions: Arg72Ala mutant of UB by site directed mutagenesis; cited from earlier work
cullin-3 = test: Western blot: transfer of UB variants to cullin-3; assay type: biochemical; conditions: 5 µM HA-tagged protein, 1 µM NAE, 1 µM Ubc12, 1 µM cullin, 1 mM ATP, 1 h, room temperature, anti-HA Western blot
Description: as §1, §2

Ubc12 (E2) = test: Western blot: transfer of UB variants to Ubc12; assay type: biochemical; conditions: 5 µM HA-tagged protein, 1 µM NAE, 1 µM Ubc12, 1 µM cullin, 1 mM ATP, 1 h, room temperature, anti-HA Western blot
Description: as §1, §2

Ubc12 = target: T2, Ubc12 (UniProt P61081 1-183); test: thioester conjugate formation (SDS-PAGE, Western blot); 5 µM biotin labeled peptide with 1 µM NAE, 1 µM Ubc12 and 1 µM cullin, 1 mM ATP, 10 mM MgCl2, 50 µM DTT, TBS, 1 hour, room temperature; streptavidin-HRP blot; covalent conjugates; conditions: both partners purified
T2 construct: also called E2; source: expressed and purified as previously reported [33]
T2 sequence (looked up): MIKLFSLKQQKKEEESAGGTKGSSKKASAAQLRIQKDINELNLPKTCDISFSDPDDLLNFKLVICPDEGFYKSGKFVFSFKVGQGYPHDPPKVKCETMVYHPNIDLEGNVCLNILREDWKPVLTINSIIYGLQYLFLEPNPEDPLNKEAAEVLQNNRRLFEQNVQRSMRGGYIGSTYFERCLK

Molecule: NS(=O)(=O)OC[C@@H]1C[C@@H](n2ccc3c(N[C@H]4CCc5ccccc54)ncnc32)C[C@@H]1O [MLN4924]
- inhibition of NAE (NAE [1]): potent inhibitor of NAE

Molecule: N26: UB variant with single Arg72Ala mutation, C-terminal sequence 71LALRGG76
- formation of UB∼NAE conjugates (NAE (E1)): can function as the wt Nedd8 for thioester formation with NAE and Ubc12
- activity with NAE (NAE [2]): previously found to be active with NAE
- transfer to cullin (cullin modification) (cullin-3): substantial cullin modification at a level similar or exceeding that of wt Nedd8
- transfer from NAE to Ubc12 (UB∼Ubc12 conjugates) (Ubc12 (E2)): efficiently forms UB∼Ubc12 conjugates

B1: biotin-pN26 (VLALRGG) (peptide)
peptide: {Biotin-LC-LC}-VLALRGG
notes: also called pN26 conjugated to biotin; source: synthetic peptide (EZBiolab), labelled with NHS-LC-LC-biotin, HPLC purified
- binding result (Ubc12): binds
